In ChEMBL document CHEMBL5120899, “Sesquiterpene Lactones from Vernonia tufnelliae: Structural Characterization and Biological Evaluation” (J Nat Prod, 2022):

System: HeLa S3
Assay: Cytotoxicity against human HeLa S3 cells assessed as cell viability incubated for 48 hrs by microscopic analysis
Format: functional, cell-based
Conditions: HeLa S3, 48 h

SMILES | IC50
C=C(CO)C(=O)O[C@H]1C/C(C)=C/CC/C(CO)=C/[C@H]2OC(=O)[C@@H](CN[C@H](CC(C)C)C(=O)O)[C@H]12 | > 10 µM
Oc1ccc(Cc2ccc(O)cc2)cc1 | > 10 µM
C=C(CO)C(=O)O[C@H]1C/C(C)=C/CC/C(CO)=C/[C@H]2OC(=O)[C@@H](CN[C@@H](C(=O)O)C(C)C)[C@H]12 | > 10 µM
C=C(CO)C(=O)O[C@H]1C/C(C)=C/CC/C(CO)=C/[C@H]2OC(=O)C(=C)[C@H]12 | > 10 µM
C=C(CO)C(=O)O[C@H]1C/C(C)=C/CC/C(CO)=C/[C@H]2OC(=O)[C@@H](CN3C[C@@H](CO)[C@]4(O)O[C@H]5C/C(C)=C/CC/C(CO)=C/[C@H]6OC(=O)[C@]4(C3)[C@H]56)[C@H]12 | > 10 µM
C=C[C@@]1(C)C[C@@H](OC(=O)C(=C)CO)[C@H](C(=C)C(=O)OC/C2=C\[C@H]3OC(=O)C(=C)[C@@H]3[C@@H](OC(=O)C(=C)CO)C/C(C)=C/CC2)[C@@H](O)[C@@H]1C(=C)CO | > 10 µM
Oc1ccc(Cc2ccccc2O)cc1 | > 10 µM
C=C(CO)C(=O)O[C@H]1C/C(C)=C/CC/C(CO)=C/[C@H]2OC(=O)[C@@H](CN[C@H](Cc3ccccc3)C(=O)O)[C@H]12 | > 10 µM
O=c1cc(-c2ccc(O)cc2)oc2cc(O)cc(O)c12 [APIGENIN] | > 10 µM
O=c1cc(-c2ccc(O)c(O)c2)oc2cc(O[C@@H]3O[C@H](CO)[C@@H](O)[C@H](O)[C@H]3O)cc(O)c12 [GALUTEOLIN] | > 10 µM
O=c1cc(-c2ccc(O)cc2)oc2cc(O[C@@H]3O[C@H](CO)[C@@H](O)[C@H](O)[C@H]3O)cc(O)c12 [APIGETRIN] | > 10 µM
O=Cc1c[nH]c2ccccc12 [3-FORMYLINDOLE] | > 10 µM
COc1cc2oc(-c3ccc(O)c(O)c3)cc(=O)c2c(O)c1O | > 10 µM
